Each structure is given as a SMILES string. Like-named read-outs stand apart in the source and are kept apart here.

These results are taken from patent US8889705B2, “Noscapine analogs and their use in treating cancers” (Emory University, priority 2007, dated 2014).

Data set [1] deals with T1, tubulin.
T1 construct: other: 2 μM tubulin, 45 min at 37° C., double reciprocal plot; rate and extent of tubulin polymerization; other: 25 μM or 100 μM
Conditions: values with literature reference [18], [12], [43]; read-out: dissociation constant (Kd) for binding to tubulin; cited from earlier work.

The test system of data set [2] is MCF-7 cells. As to the kind of experiment: Cell cycle analysis (propidium iodide, flow cytometry). The data set is classed as cell-based, human. Conditions: for G0/G1 / G2/M / S / Sub-G1: MCF-7, 25 μM, mean ± S.E.M.; for percent sub-G1 cells compared with noscapine: MCF-7, lower doses (5 μM and 10 μM), 72 hours. How it is done: The flow cytometric evaluation of the cell cycle status was performed as described previously. Briefly, 2×10^6 cells were centrifuged, washed twice with ice-cold PBS, and fixed in 70% ethanol. Tubes containing the cell pellets were stored at 4° C. for at least 24 hours. Cells were then centrifuged at 1000×g for 10 min and the supernatant was discarded. The pellets were washed twice with 5 ml of PBS and then stained with 0.5 ml of propidium iodide (0.1% in 0.6% Triton-X in PBS) and 0.5 ml of RNase A (2 mg/ml) for 45 minutes in dark. Samples were then analyzed on a FACSCalibur flow cytometer (Beckman Coulter Inc., Fullerton, Calif.).

For data set [3], the system named is MDA-MB-231 cells. The experiment in a line: Sulforhodamine B cell proliferation assay. The data set is classed as cell-based. The note with it: Homo sapiens; MDA-MB-231, 72 hours, SRB. How it is done: (§1) Sulforhodamine B (SRB) assay: The cell proliferation assay was performed in 96-well plates as described previously. Adherent cells (MCF-7 and MDA-MB-231) were seeded in 96-well plates at a density of 5×10^3 cells per well. They were treated with increasing concentrations of the halogenated analogs the next day while in log-phase growth. After 72 hours of drug treatment, cells were fixed with 50% trichloroacetic acid and stained with 0.4% sulforhodamine B dissolved in 1% acetic acid. After 30 minutes, cells were then washed with 1% acetic acid to remove the unbound dye. The protein-bound dye was extracted with 10 mM Tris base to determine the optical density at 564-nm wavelength.

The subject of data set [4] is MDA-MB-231 cells. As to the kind of experiment: DAPI staining, cell morphology by fluorescence microscopy. The data set is classed as cell-based, human. Conditions: 25 μM, 72 hours. Here is the method: Cell morphology was evaluated by fluorescence microscopy following DAPI staining (Vectashield, Vector Labs, Inc., Burlingame, Calif.). MDA-MB-231 cells were grown on poly-L-lysine coated coverslips in 6-well plates and were treated with the halogenated analogs at 25 μM for 72 hours. After incubation, coverslips were fixed in cold methanol and washed with PBS, stained with DAPI, and mounted on slides. Images were captured using a BX60 microscope (Olympus, Tokyo, Japan) with an 8-bit camera (Dage-MTI, Michigan City, Ind.) and IP Lab software (Scanalytics, Fairfax, Va.). Apoptotic cells were identified by features characteristic of apoptosis (e.g. nuclear condensation, formation of membrane blebs and apoptotic bodies).

The test system of data set [5] is MCF-7 cells. As to the kind of experiment: Sulforhodamine B cell proliferation assay. The data set is classed as cell-based, human. The note with it: for IC50: Homo sapiens, MCF7, 72 h, MCF-7, 72 hours, SRB. Here is the method:
as §1

A further data set deals with CEM cells. As to the kind of experiment: In vitro cell proliferation MTS assay. The data set is classed as cell-based. Conditions: Homo sapiens, CCRF-CEM, 72 hours. Here is the method: (§2) Suspension cells (CEM, CEMNLB100 and CEM/VM-1-5) were cultured in RPMI-1640 media containing 10% FBS and then seeded into 96-well plates at a density of 5×10^3 cells per well and were treated with increasing gradient concentrations of 9-nitro-nos for 72 hours. Measurement of cell proliferation was performed colorimetrically by 3-(4,5-dimethylthiazol-2-yl)-5-(3-carboxymethoxyphenyl)-2-(4-sulphophenyl)-2H-tetrazolium, inner salt (MTS) assay, using the CellTiter96 AQueous One Solution Reagent (Promega, Madison, Wis.). Cells were exposed to MTS for 3 hours and absorbance was measured using a microplate reader (Molecular Devices, Sunnyvale, Calif.) at an optical density (OD) of 490 nm. The percentage of cell survival as a function of drug concentration for both the assays was then plotted to determine the IC50 value, which stands for the drug concentration needed to prevent cell proliferation by 50%.
as §2, with “(CEM)” for “(CEM, CEMNLB100 and CEM/VM-1-5)”, “were” for “were cultured in RPMI-1640 media containing 10% FBS and then”, “increasing” for “increasing gradient”, “all halogenated analogs” for “9-nitro-nos”
A general note: Tetrazolium dyes change colour on reduction, which living cells bring about.

Data set [6] addresses T1, tubulin. The experiment in a line: Tubulin binding assay (fluorescence titration, quenching of intrinsic tubulin fluorescence). The arrangement: species or system mammalian. The note with it: 2 μM tubulin, 45 min at 37° C., double reciprocal plot; read-out: dissociation constant (Kd) for binding to tubulin. Here is the method:
Fluorescence titration for determining the tubulin binding parameters was performed as described previously (Gupta and Panda, 2002). In brief, 9-nitro-nos (0-100 μM) was incubated with 2 μM tubulin in 25 mM PIPES, pH 6.8, 3 mM MgSO4 and 1 mM EGTA for 45 min at 37° C. The relative intrinsic fluorescence intensity of tubulin was then monitored in a JASCO FP-6500 spectrofluorometer (JASCO, Tokyo, Japan) using a cuvette of 0.3-cm path length, and the excitation wavelength was 295 nm. The fluorescence emission intensity of 9-nitro-nos at this excitation wavelength was negligible. A 0.3-cm path-length cuvette was used to minimize the inner filter effects caused by the absorbance of 9-nitro-nos at higher concentration ranges. In addition, the inner filter effects were corrected using a formula Fcorrected=Fobserved·antilog [(Aex+Aem)/2], where Aex is the absorbance at the excitation wavelength and Aem is the absorbance at the emission wavelength. The dissociation constant (Kd) was determined by the formula: 1/B=Kd/[free ligand]+1, where B is the fractional occupancy and [free ligand] is the concentration of free noscapine or 9-nitro-nos. The fractional occupancy (B) was determined by the formula B=ΔF/ΔFmax, where ΔF is the change in fluorescence intensity when tubulin and its ligand are in equilibrium and ΔFmax is the value of maximum fluorescence change when tubulin is completely bound with its ligand. ΔFmax was calculated by plotting 1/ΔF versus 1/ligand using total ligand concentration as the first estimate of free ligand concentration.
Fluorescence titration for determining the tubulin binding parameters was performed as described previously. In brief, 9-F-nos, 9-Cl-nos, 9-Br-nos or 9-I-nos (0-100 μM) was incubated with 2 μM tubulin in 25 mM PIPES, pH 6.8, 3 mM MgSO4, and 1 mM EGTA for 45 min at 37° C. The relative intrinsic fluorescence intensity of tubulin was then monitored in a JASCO FP-6500 spectrofluorometer (JASCO, Tokyo, Japan) using a cuvette of 0.3-cm path length, and the excitation wavelength was 295 nm. The fluorescence emission intensity of noscapine and its derivatives at this excitation wavelength was negligible. A 0.3-cm path-length cuvette was used to minimize the inner filter effects caused by the absorbance of these agents at higher concentration ranges. In addition, the inner filter effects were corrected using a formula F corrected=F observe·antilog [(Aex+Aem)/2], where Aex is the absorbance at the excitation wavelength and Aem is the absorbance at the emission wavelength. The dissociation constant (Kd) was determined by the formula: 1/B=Kd/[free ligand]+1, where B is the fractional occupancy and [free ligand] is the concentration of 9-F-nos, 9-Cl-nos, 9-Br-nos or 9-I-nos. The fractional occupancy (B) was determined by the formula B=ΔF/ΔFmax, where ΔF is the change in fluorescence intensity when tubulin and its ligand are in equilibrium and ΔFmax is the value of maximum fluorescence change when tubulin is completely bound with its ligand. ΔFmax was calculated by plotting 1/ΔF versus 1/[free ligand].

Consider `COc1ccc2c(c1OC)C(=O)O[C@@H]2[C@H]1c2c(c(Br)c3c(c2OC)OCO3)CCN1C` [9-Br-nos, (S)-6,7-dimethoxy-3-((R)-4-methoxy-6-methyl-9-bromo-5,6,7,8-tetrahydro-[1,3]dioxolo[4,5-g]isoquinolin-5-yl)isobenzofuran-1(3H)-one], for which the dissociation constant Kd at tubulin [1] and at tubulin [6] was 54 ± 9.1 µM throughout. Besides, the G0/G1 was determined as 53.3 ± 2.8% in the data set on MCF-7 cells [2] (0 h), 10.4 ± 1.8% in the data set with MCF-7 cells [2] (24 h), 6.5 ± 2.5% in the data set with MCF-7 cells [2] (48 h) and 4.6 ± 2.1% with MCF-7 cells [2] (72 h). The G2/M is 28.9 ± 4.4% with MCF-7 cells [2] (0 h), 61.9 ± 3.6% in the data set with MCF-7 cells [2] (24 h), 43.8 ± 3.4% in the data set with MCF-7 cells [2] (48 h) and 33.7 ± 3.5% in the data set on MCF-7 cells [2] (72 h). In addition, the S with MCF-7 cells [2] (0 h) is 12.7 ± 1.8%; with MCF-7 cells [2] (24 h) it was 3.4 ± 1.2%; in the data set with MCF-7 cells [2] (48 h), 2.8 ± 0.7%; with MCF-7 cells [2] (72 h), 2.4 ± 1.6%. Also, the Sub-G1 came out at 0.2 ± 0.1% with MCF-7 cells [2] (0 h), 6.9 ± 2.4% in the data set with MCF-7 cells [2] (24 h), 35.1 ± 3.5% in the data set with MCF-7 cells [2] (48 h) and 49.6 ± 2.7% in the data set with MCF-7 cells [2] (72 h). For the same compound, the “percent sub-G1 cells compared with noscapine” value with MCF-7 cells [2] is “higher”. In addition, the IC50 (as a rule, the point on the concentration scale where inhibition reaches its midpoint) with MDA-MB-231 cells [3] is 3.3 ± 0.4 µM; with MCF-7 cells [5], 1 ± 0.2 µM; in the data set on CEM cells, 1.9 ± 0.2 µM. For the same compound, the “nuclear morphology (features of apoptotic cells), DAPI” value (“nuclear morphology” for short) with MDA-MB-231 cells [4] is “condensed chromosomes, numerous fragmented micronuclei, and apoptotic bodies are evident”. Besides, the “fold higher cytotoxic activity than noscapine” value in the data set on MCF-7 cells [5] (MCF-7, ratio of IC50) was roughly 40 fold.
In the case of `COc1ccc2c(c1OC)C(=O)O[C@@H]2[C@H]1c2c(c(F)c3c(c2OC)OCO3)CCN1C` [9-F-nos, (S)-6,7-dimethoxy-3-((R)-4-methoxy-6-methyl-9-fluoro-5,6,7,8-tetrahydro-[1,3]dioxolo[4,5-g]isoquinolin-5-yl)isobenzofuran-1(3H)-one], the G0/G1 in the data set with MCF-7 cells [2] (0 h) is on record as 67.7 ± 5.6%; in the data set on MCF-7 cells [2] (24 h) it was 10.8 ± 2.4%; in the data set on MCF-7 cells [2] (48 h) it was 7.9 ± 2.8%; with MCF-7 cells [2] (72 h), 5.2 ± 2.2%. Besides, the G2/M in the data set with MCF-7 cells [2] (0 h) amounted to 18.5 ± 2.2%; in the data set with MCF-7 cells [2] (24 h) it was 65.9 ± 4.4%; in the data set with MCF-7 cells [2] (48 h), 43.7 ± 2.9%; in the data set on MCF-7 cells [2] (72 h), 34.4 ± 3.4%. The S came to 11.9 ± 1.5% in the data set on MCF-7 cells [2] (0 h), 3.8 ± 1.1% with MCF-7 cells [2] (24 h), 3.5 ± 0.8% with MCF-7 cells [2] (48 h) and 3.6 ± 1.5% in the data set with MCF-7 cells [2] (72 h). For the same compound, the Sub-G1 was 0.2 ± 0.04% with MCF-7 cells [2] (0 h), 6.8 ± 2.1% in the data set on MCF-7 cells [2] (24 h), 34.5 ± 2.5% in the data set with MCF-7 cells [2] (48 h) and 48.6 ± 3.3% in the data set with MCF-7 cells [2] (72 h). The “percent sub-G1 cells compared with noscapine” value with MCF-7 cells [2] was “higher”. Further, the concentration for half-maximal inhibition (IC50) with MDA-MB-231 cells [3] turned out to be 8.2 ± 0.6 µM; in the data set with MCF-7 cells [5] it was 3.3 ± 0.8 µM; with CEM cells it was 2.3 ± 0.7 µM. Also, the “nuclear morphology” value with MDA-MB-231 cells [4] was “condensed chromosomes, numerous fragmented micronuclei, and apoptotic bodies are evident”. The equilibrium dissociation constant (Kd) (as a rule, the equilibrium constant for the complex coming apart) at tubulin [6] was found to be 81 ± 8 µM.
Take `COc1ccc2c(c1OC)C(=O)O[C@@H]2[C@H]1c2c(c(I)c3c(c2OC)OCO3)CCN1C` [9-I-nos, (S)-6,7-dimethoxy-3-((R)-4-methoxy-6-methyl-9-iodo-5,6,7,8-tetrahydro-[1,3]dioxolo[4,5-g]isoquinolin-5-yl)isobenzofuran-1(3H)-one]: the G0/G1 with MCF-7 cells [2] (0 h) stood at 60.6 ± 4.6%; with MCF-7 cells [2] (24 h), 17 ± 2.3%; with MCF-7 cells [2] (48 h), 15.4 ± 4.5%; with MCF-7 cells [2] (72 h), 17 ± 1.9%. In addition, the G2/M with MCF-7 cells [2] (0 h) was 23.1 ± 3.7%; in the data set with MCF-7 cells [2] (24 h) it was 44.5 ± 5.1%; in the data set on MCF-7 cells [2] (48 h), 25.9 ± 4.1%; with MCF-7 cells [2] (72 h), 20.7 ± 2.2%. The S worked out at 13.9 ± 2.3% in the data set with MCF-7 cells [2] (0 h), 3.1 ± 1.3% in the data set with MCF-7 cells [2] (24 h), 2.9 ± 0.6% in the data set with MCF-7 cells [2] (48 h) and 4.9 ± 2.2% in the data set on MCF-7 cells [2] (72 h). In addition, the Sub-G1 is recorded as 0.3 ± 0.2% in the data set on MCF-7 cells [2] (0 h), 7.7 ± 1.7% in the data set on MCF-7 cells [2] (24 h), 28.1 ± 3.1% with MCF-7 cells [2] (48 h) and 30.1 ± 3.1% in the data set with MCF-7 cells [2] (72 h). In addition, the IC50 is 25.6 ± 2.4 µM in the data set on MDA-MB-231 cells [3], 45.6 ± 3.1 µM in the data set on MCF-7 cells [5] and 38.9 ± 3.5 µM in the data set with CEM cells. Further, the “nuclear morphology” value in the data set on MDA-MB-231 cells [4] is “condensed chromosomes, numerous fragmented micronuclei, and apoptotic bodies are evident”. Moreover, on tubulin [6], the dissociation constant (Kd) is 22 ± 4 µM.
